{
  "source": "patent US20200170269A1",
  "about": "“ALLULOSE-CONTAINING COMPOSITION FOR PROMOTING EXCRETION OF VEGETABLE LIPIDS FROM THE BODY” (CJ CHEILJEDANG CORPORATION, priority 2016, published 2020)",
  "format_in_all_cases": "in vivo",
  "key": {"[1]": {"experiment": "Fecal lipid excretion (triglycerides, cholesterol, free fatty acids) in C57BL/6J mice fed a high-fat diet containing vegetable lipids with or without 5% allulose for 8 weeks", "conditions": "in words", "from_the_text": "Twenty C57BL/6J mice (male, 4-week-old) were purchased from The Jackson Laboratory (USA) and used. After the animals were acclimated to the feeding environment with a lab-chow diet (Purina Co., USA) for 4 weeks, they were divided by a randomized block design into two groups: a negative control group without the ingestion of allulose (n=10/one kind of lipid); and a test group with the ingestion of allulose (n=10/one kind of lipid) and they were fed with the diets for 8 weeks. For the negative control group, the high-fat diet was applied to the AIN-76 diet, and the vegetable lipids [palm oil ([…], Malaysia), olive oil (CJ CheilJedang Corp., South Korea), soybean oil (CJ CheilJedang Corp., South Korea), margarine (Ottogi Foods Co., Ltd., 'Corn margarine', raw materials: consisted of 80 wt % of vegetable lipids (palm olein oil, palm stearin oil, coconut oil, corn oil)] were included. For the test group, among the ingredients of the diet for the negative control group, 5 wt % of sucrose was replaced with allulose (crystalline allulose, 98 wt % of allulose based on dry solids, CJ CheilJedang Corporation) (Table 1). All the animal experiments were carried out under the approval of the Ethics Committee for Animal Studies at Kyungpook National University, South Korea (approval no. KNU-2013-18). […] To remove the turbidity occurring from the development with 3 mM cholic acid (sodium salt), 0.5% Triton X-100 as an emulsifier was mixed with an enzyme test solution during the quantification of total cholesterol and neutral lipids. […] For the quantification of both free cholesterol (FC) and ester-type cholesterol (CE) in the feces, CE was converted by cholesterol esterase into FC and fatty acids. […] The resulting product and H2O2 which is the substrate were subjected to the reaction with peroxidase, phenol, and 4-amino-antipyrine to obtain a color developing material and the absorbance was measured at 500 nm. Quantification was carried out by comparing the measured value with the cholesterol standard curve. […]"}, "[2]": {"experiment": "Fecal lipid excretion (triglycerides, cholesterol, free fatty acids) in C57BL/6J mice fed a high-fat diet containing creamer with or without 5% allulose for 8 weeks", "conditions": "allulose consumed along with vegetable lipids in the creamer, in words", "from_the_text": "Sixteen C57BL/6J mice (male, 4-week-old) were purchased from The Jackson Laboratory (USA) and used. After the animals were acclimated to the feeding environment with a lab-chow diet (Purina Co., USA) for 4 weeks, they were divided by a randomized block design into two groups: a negative control group without the ingestion of allulose (PR, n=8); and a test group with the ingestion of allulose (PRA, n=8) and they were fed with the diets for 8 weeks. […] To remove the turbidity occurring from the development with 3 mM cholic acid (sodium salt), 0.5% Triton X-100 as an emulsifier was mixed with an enzyme test solution during the quantification of total cholesterol and neutral lipids. […] For the quantification of both free cholesterol (FC) and ester-type cholesterol (CE) in the feces, CE was converted by cholesterol esterase into FC and fatty acids. […] The resulting product and H2O2 which is the substrate were subjected to the reaction with peroxidase, phenol, and 4-amino-antipyrine to obtain a color developing material and the absorbance was measured at 500 nm. Quantification was carried out by comparing the measured value with the cholesterol standard curve. […]"}, "[3]": {"experiment": "Body weight of C57BL/6J mice fed a high-fat diet containing vegetable lipids (palm oil, olive oil, soybean oil, margarine) with or without 5% allulose for 8 weeks", "conditions": "with allulose (5%), mean (SE in cell below); for Initial body weight: 0th week", "from_the_text": "Twenty C57BL/6J mice (male, 4-week-old) were purchased from The Jackson Laboratory (USA) and used. After the animals were acclimated to the feeding environment with a lab-chow diet (Purina Co., USA) for 4 weeks, they were divided by a randomized block design into two groups: a negative control group without the ingestion of allulose (n=10/one kind of lipid); and a test group with the ingestion of allulose (n=10/one kind of lipid) and they were fed with the diets for 8 weeks. For the negative control group, the high-fat diet was applied to the AIN-76 diet, and the vegetable lipids [palm oil ([…], Malaysia), olive oil (CJ CheilJedang Corp., South Korea), soybean oil (CJ CheilJedang Corp., South Korea), margarine (Ottogi Foods Co., Ltd., 'Corn margarine', raw materials: consisted of 80 wt % of vegetable lipids (palm olein oil, palm stearin oil, coconut oil, corn oil)] were included. For the test group, among the ingredients of the diet for the negative control group, 5 wt % of sucrose was replaced with allulose (crystalline allulose, 98 wt % of allulose based on dry solids, CJ CheilJedang Corporation) (Table 1). All the animal experiments were carried out under the approval of the Ethics Committee for Animal Studies at Kyungpook National University, South Korea (approval no. KNU-2013-18). All groups were allowed to ingest the iso-energetic diet of the same level by pair feeding based on the test group so as to exclude the calorie-reducing effect due to the allulose and the diets were kept refrigerated at 4° C. during the feeding period. The animals were housed in an individual cage under constant temperature (25±2° C.), constant humidity (50±5%), and a 12 h dark-light cycle. Dietary intake was measured at a constant time every day, and the body weight was measured at a constant time every week."}},
  "data": [
    {"smiles": "O=C(CO)C(O)C(O)C(O)CO", "note": "[allulose, Allulose (D-psicose)]", "values": [
      {"measurement": "Cholesterol content in the feces / excretion of cholesterol", "setting": "[1]; HFD + soybean oil with 5% allulose compared to the SO group", "result": "increased"},
      {"measurement": "Fecal excretion of lipids", "setting": "[1]; allulose consumed along with each of palm oil, olive oil, soybean oil, and margarine", "result": "promoted"},
      {"measurement": "Effect of excreting lipids compared to ingestion of allulose along with other vegetable lipids", "setting": "[1]; allulose taken together with soybean oil", "result": "excellent"},
      {"measurement": "Fecal excretion of lipids", "setting": "[2]", "result": "promoted"},
      {"measurement": "Initial body weight", "setting": "[3]; HFD + margarine", "result": "21.57±"},
      {"measurement": "Body weight on 8th week", "setting": "[3]; HFD + margarine", "result": "32.30±"},
      {"measurement": "Initial body weight", "setting": "[3]; HFD + olive oil", "result": "21.28±"},
      {"measurement": "Body weight on 8th week", "setting": "[3]; HFD + olive oil", "result": "28.87±"},
      {"measurement": "Initial body weight", "setting": "[3]; HFD + palm oil", "result": "21.62±"},
      {"measurement": "Body weight on 8th week", "setting": "[3]; HFD + palm oil", "result": "29.57±"},
      {"measurement": "Initial body weight", "setting": "[3]; HFD + soybean oil", "result": "21.23±"},
      {"measurement": "Body weight on 8th week", "setting": "[3]; HFD + soybean oil", "result": "28.84±"}
    ]}
  ]
}
